Data as given in patent publication US20120037840A1, “USE OF MAGNETIC NANOPARTICLES TO REMOVE ENVIRONMENTAL CONTAMINANTS” (priority 2008, published 2012).
Values after ≈ are worked out from the molar mass of the structure shown.

Columns and labels:
[1] = Sorption kinetics of HOCs onto Mag-PCMAs from contaminated water; assay type: physicochemical; settings: 20 mg/L HA; initial diuron 34.3 μmol/L
Protocol: Sorption kinetics of HOCs onto Mag-PCMAs from contaminated water. The HOC sorption kinetics onto Mag-PCMAs were determined by batch experiments. Aliquots (50 mg) of Mag-PCMAs were mixed in 10 ml glass tubes with 10.0 ml of an aqueous solution of each HOC. […] The caps of the tubes were lined with PTFE. The tubes were shaken at 60 rpm at 22±2° C. continuously. At the end of 5, 10, 20, 30, 45, 60, 90, 120, 180, 200, 360, 720, and 1440 minutes, one tube was taken out. A magnet was then used to separate the Mag-PCMAs from the aqueous phase. […] 1.0 ml of the supernatant was taken for HOC analysis on a high performance liquid chromatography (HPLC). The amount of HOC sorbed was calculated as the difference between the initial and final HOC mass in aqueous phase. To order to investigate the effect of the presence of HA on HOC sorption kinetics, diuron sorption kinetics were determined in the presence of 20 mg/L HA (organic carbon content), an environmental relevant HA concentration.^29 The initial diuron concentration was 34.3 μmol/L.

[2] = water solubility of the HOC; cited from earlier work
[3] = cited from earlier work; for Kow: octanol-water coefficient; for log10(Kow): organic solvents used for extraction of HA-stabilized CNTs (FIG. 9)
[4] = benzalkonium chloride concentration of 6.0 g/L; cited from earlier work

Compound | Solubility [2] | Kow [3] | log10(Kow) [3] | also measured
CN(C)C(=O)Nc1ccc(Cl)c(Cl)c1 [Diuron, 3-(3,4-dichlorofenyl)-1,1-dimethylurea] | 180 µg/mL (≈ 772 µM) | 660 |  | effect of presence of HA on sorption kinetics [1]: no significant effect; solubility of diuron relative to that in absence of the surfactant [4]: about 20 times
CCNc1nc(Cl)nc(NC(C)C)n1 [Atrazine, 2-chloro-4-ethylamino-6-isopropylamino-1,3,5-triazine] |  | 416 |  | 
CCCCCCCC [octane] |  |  | 5.18 | 
c1ccc2ccccc2c1 [Naphthalene, naphthalene] | 225 µg/mL (≈ 1760 µM) |  |  | 
c1ccc(-c2ccccc2)cc1 [Biphenyl, biphenyl] | 44 µg/mL (≈ 285 µM) | 7079 |  | 
ClC=C(Cl)Cl [TCE, trichloroethene] |  |  | 2.33 | 
CCCCCC [hexane] |  |  | 4.00 | 
